Data on two compounds can be found in ChEMBL document CHEMBL1158191, “Two new aromatic constitutents from the rootwood of Aeschynomene mimosifolia” (1996).

In brackets after ≈: the same amount, converted by molar mass. Activity calls are given as the source filed them. No cut-off for these calls is given here.

The test system of one assay is KB. In words: Cytotoxicity against human KB cells. The class given is functional.
The next assay has as its system BC1. In words: Cytotoxicity against human BC1 cells. The class given is functional, cell-based.
The test system of a further assay is Lu1. In words: Cytotoxicity against human Lu1 cells. The class given is functional, cell-based.
The subject of the next assay is LNCaP. In words: Cytotoxicity against human LNCAP cells. The class given is functional, cell-based.
In another assay the test system is U-373MG ATCC. In words: Cytotoxicity against human U373 cells. The class given is functional, cell-based.
Another assay relates to ZR-75-1. In words: Cytotoxicity against human ZR-75-1 cells. The class given is functional, cell-based.
The nature of assay [1]: Induction of DNA scission activity in at 25 ug/mL.

On to `C=C[C@H](c1ccccc1)c1cc(OC)c(O)cc1OC`, for which the outcome in the assay on KB, in the assay with BC1, with Lu1, in the assay with LNCaP, in the assay on U-373MG ATCC and in the assay with ZR-75-1 was inactive.
Turning to `CO[C@H]1CC(=O)C=CC[C@]1(O)/C=C\c1ccccc1` [MIMOSIFOLENONE], the EC50 with KB (read-out: ED50 (the source's name)) was 3.3 µg/mL (≈ 12.8 µM). Moreover, the result in assay [1] was inactive.
